Read-outs that look alike come from different tables or passages of the source.

Results on 20 molecules are retold here after patent publication US8471005B2 (Cephalon, Inc., priority 2008, dated 2013).

The target of one experiment is T1, JAK2 (Homo sapiens, UniProt O60674).
T1 construct: host or cells: baculovirus expression system
The experiment is described as follows: Recombinant Human JAK2 Kinase Assay (TRF). As to conditions: read-out: JAK2 Potency. The class given is biochemical. The essentials: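 Baculovirus-expressed JAK2 (15 ng/ml) phosphorylated a biotinylated 15-mer peptide captured on Neutravidin-coated plates, in 20 mM HEPES pH 7.2 with 0.2 μM ATP, 1 mM MnCl2, 0.1% BSA and 2.5% DMSO. Reaction ran 20 min at room temperature; phosphopeptide was detected by time-resolved fluorescence with Eu-N1-labelled PY100 antibody.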

In another experiment the target is T2, ALK (Homo sapiens, UniProt Q9UM73).
T2 construct: host or cells: baculovirus expression system
The experiment is described as follows: ALK Kinase Assay (ELISA/TRF, PLC-γ substrate). Conditions: read-out: ALK Potency. The class given is biochemical. The gist of the method:
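Read-out is time-resolved fluorescence from a Eu-N1-labeled PT66 antibody that binds phosphorylated PLC-γ, the substrate coated at 10 μg/mL in TBS. ALK at 30 ng/ml starts the reaction, which runs 15 minutes at 37° C.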
For orientation: An ELISA detects its analyte on a solid surface through an enzyme-linked reagent.

Setting [1] is: JAK2 kinase inhibition, 0.2 μM ATP.
Setting [2] is: ALK kinase inhibition, 1 μM ATP.

T1 sequence (O60674 whole entry): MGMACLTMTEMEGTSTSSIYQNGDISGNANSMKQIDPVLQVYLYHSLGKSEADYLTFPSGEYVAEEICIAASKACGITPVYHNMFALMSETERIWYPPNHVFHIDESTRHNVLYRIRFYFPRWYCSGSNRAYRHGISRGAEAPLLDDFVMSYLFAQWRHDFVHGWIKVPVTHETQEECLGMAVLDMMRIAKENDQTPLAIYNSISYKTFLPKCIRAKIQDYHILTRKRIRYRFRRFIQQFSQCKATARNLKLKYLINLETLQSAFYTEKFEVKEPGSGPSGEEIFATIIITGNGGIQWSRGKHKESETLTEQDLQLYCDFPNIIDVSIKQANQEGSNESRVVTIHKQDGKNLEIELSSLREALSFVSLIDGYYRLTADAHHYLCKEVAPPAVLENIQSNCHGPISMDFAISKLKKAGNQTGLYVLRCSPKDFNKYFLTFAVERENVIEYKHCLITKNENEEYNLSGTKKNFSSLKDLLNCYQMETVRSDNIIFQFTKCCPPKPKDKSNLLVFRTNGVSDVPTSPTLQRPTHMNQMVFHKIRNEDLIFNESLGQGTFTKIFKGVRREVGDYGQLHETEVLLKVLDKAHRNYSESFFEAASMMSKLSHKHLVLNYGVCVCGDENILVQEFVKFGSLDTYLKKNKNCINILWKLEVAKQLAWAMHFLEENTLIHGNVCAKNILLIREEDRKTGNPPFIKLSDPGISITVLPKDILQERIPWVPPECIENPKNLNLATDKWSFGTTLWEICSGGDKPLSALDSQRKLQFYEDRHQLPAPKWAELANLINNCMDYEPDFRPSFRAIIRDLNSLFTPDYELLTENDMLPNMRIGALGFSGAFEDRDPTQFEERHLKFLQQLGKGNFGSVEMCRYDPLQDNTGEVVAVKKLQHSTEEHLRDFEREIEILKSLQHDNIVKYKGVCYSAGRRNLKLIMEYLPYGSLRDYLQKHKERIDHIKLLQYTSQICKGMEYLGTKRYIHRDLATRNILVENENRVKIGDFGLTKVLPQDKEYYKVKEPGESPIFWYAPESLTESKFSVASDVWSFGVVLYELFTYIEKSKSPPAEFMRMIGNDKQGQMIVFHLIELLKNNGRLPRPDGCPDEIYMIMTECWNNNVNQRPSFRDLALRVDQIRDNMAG
T2 sequence (Q9UM73 19-1620): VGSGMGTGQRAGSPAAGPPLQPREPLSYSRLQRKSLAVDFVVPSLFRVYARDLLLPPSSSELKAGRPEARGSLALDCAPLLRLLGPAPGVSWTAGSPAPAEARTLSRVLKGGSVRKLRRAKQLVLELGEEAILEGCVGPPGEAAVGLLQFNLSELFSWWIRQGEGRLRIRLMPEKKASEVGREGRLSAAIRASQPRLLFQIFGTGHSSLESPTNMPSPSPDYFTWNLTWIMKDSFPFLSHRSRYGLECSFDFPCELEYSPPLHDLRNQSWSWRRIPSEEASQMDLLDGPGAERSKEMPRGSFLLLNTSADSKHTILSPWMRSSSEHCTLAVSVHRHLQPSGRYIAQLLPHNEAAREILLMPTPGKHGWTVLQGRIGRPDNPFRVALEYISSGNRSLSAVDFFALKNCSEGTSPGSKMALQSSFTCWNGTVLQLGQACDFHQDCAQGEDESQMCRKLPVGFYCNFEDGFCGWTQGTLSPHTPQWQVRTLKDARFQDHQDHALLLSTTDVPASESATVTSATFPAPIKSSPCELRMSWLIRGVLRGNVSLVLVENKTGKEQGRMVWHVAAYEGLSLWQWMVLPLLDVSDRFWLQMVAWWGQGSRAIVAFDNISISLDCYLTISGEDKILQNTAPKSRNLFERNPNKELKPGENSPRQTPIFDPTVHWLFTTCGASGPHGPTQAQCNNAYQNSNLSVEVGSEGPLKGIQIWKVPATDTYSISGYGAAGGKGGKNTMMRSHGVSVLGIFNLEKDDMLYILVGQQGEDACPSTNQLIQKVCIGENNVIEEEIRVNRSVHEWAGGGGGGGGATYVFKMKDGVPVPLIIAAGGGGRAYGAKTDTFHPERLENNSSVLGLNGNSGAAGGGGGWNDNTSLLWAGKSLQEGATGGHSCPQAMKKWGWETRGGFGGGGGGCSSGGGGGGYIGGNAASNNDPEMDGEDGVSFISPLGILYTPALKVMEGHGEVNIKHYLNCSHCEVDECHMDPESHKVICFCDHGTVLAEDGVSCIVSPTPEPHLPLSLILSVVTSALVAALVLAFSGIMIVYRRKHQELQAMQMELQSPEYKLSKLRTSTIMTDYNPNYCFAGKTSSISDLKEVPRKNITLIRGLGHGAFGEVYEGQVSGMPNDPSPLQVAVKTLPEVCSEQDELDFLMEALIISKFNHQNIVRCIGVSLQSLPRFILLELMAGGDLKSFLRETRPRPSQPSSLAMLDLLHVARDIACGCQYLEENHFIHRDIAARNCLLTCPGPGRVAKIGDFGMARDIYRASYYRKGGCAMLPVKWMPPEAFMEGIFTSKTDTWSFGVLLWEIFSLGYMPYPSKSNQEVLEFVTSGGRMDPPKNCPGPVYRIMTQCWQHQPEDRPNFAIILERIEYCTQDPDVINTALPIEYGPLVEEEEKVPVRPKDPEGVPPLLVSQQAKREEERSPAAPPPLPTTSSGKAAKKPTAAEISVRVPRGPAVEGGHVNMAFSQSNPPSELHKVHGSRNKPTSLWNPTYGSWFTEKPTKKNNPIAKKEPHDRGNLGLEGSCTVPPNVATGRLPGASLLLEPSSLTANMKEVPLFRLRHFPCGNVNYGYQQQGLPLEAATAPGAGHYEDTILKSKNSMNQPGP

With `CC(C)(C)NS(=O)(=O)c1cccc(-c2ccc3cnc(Nc4ccc(N5CCC(N6CCNC(=O)C6)CC5)cc4)nn23)c1` [Example 562, N-tert-Butyl-3-(2-{4-[4-(3-oxo-piperazin-1-yl)-piperidin-1-yl]-phenylamino}-pyrrolo[2,1-f][1,2,4]triazin-7-yl)-benzenesulfonamide], the IC50 was under 100 nM at JAK2 (setting [1]) and 100 to 1000 nM at ALK (setting [2]).
`COc1ccccc1-c1ccc2cnc(Nc3cccc(C4CCN(C)CC4)c3OC)nn12` [Example 775, [2-Methoxy-3-(1-methyl-piperidin-4-yl)-phenyl]-[7-(2-methoxy-phenyl)-pyrrolo[2,1-f][1,2,4]triazin-2-yl]-amine]: the IC50 on JAK2 (setting [1]) and on ALK (setting [2]) was under 100 nM throughout.
Regarding `COc1cc(N2CCC(C(=O)N3CCN(C)CC3)CC2)ccc1Nc1ncc2ccc(-c3ccccc3N(C)S(C)(=O)=O)n2n1` [Example 459, N-[2-(2-{2-Methoxy-4-[4-(4-methyl-piperazine-1-carbonyl)-piperidin1-yl]-phenylamino}-pyrrolo[2,1-f][1,2,4]triazin-7-yl)-phenyl]-N-methyl-methanesulfonamide], the IC50 was 100 to 1000 nM at JAK2 (JAK2 Kinase Inhibition) and under 100 nM at ALK (ALK Kinase Inhibition).
For `CN1CCN(c2ccc(Nc3ncc4c(-c5cccc(F)c5)ccn4n3)cc2)CC1` [Example 730, [5-(3-Fluoro-phenyl)-pyrrolo[2,1-f][1,2,4]triazin-2-yl]-[4-(4-methyl-piperazin-1-yl)-phenyl]-amine], the IC50 is 1000 to 10000 nM at JAK2 (setting [1]) and over 10000 nM at ALK (setting [2]).
As to `CC(=O)Nc1cccc(Nc2ncc3ccc(-c4cnn(C)c4)n3n2)c1` [Example 1378, N-{3-[7-(1-Methyl-1H-pyrazol-4-yl)-pyrrolo[2,1-f][1,2,4]triazin-2-ylamino]-phenyl}-acetamide], the IC50 at JAK2 (JAK2 Kinase Inhibition) was under 100 nM; at ALK (ALK Kinase Inhibition), 1000 to 10000 nM.
On the same counts, the results for `CS(=O)(=O)c1cccc(-c2ccc3cnc(Nc4cccc(N5CCOCC5)c4)nn23)c1` [Example 184, [7-(3-Methanesulfonyl-phenyl)-pyrrolo[2,1-f][1,2,4]triazin-2-yl]-(3-morpholin-4-yl-phenyl)-amine] are under 100 nM and 1000 to 10000 nM.
For the molecule `CN1CCN(C)C(c2cccc(Nc3ncc4ccc(-c5cccc(S(=O)(=O)N6CCCC6)c5)n4n3)c2)C1=O` (stereo not shown) [Example 1079, 1,4-Dimethyl-3-(3-{7-[3-(pyrrolidine-1-sulfonyl)-phenyl]-pyrrolo[2,1-f][1,2,4]triazin-2-ylamino}-phenyl)-piperazin-2-one], the figures for the IC50 on JAK2 (setting [1]) and on ALK (setting [2]) were under 100 nM and 1000 to 10000 nM, respectively.
On to `COc1cc(N2CCC(N3CCN(C)CC3)CC2)ccc1Nc1ncc2ccc(-c3ccccc3OC)n2n1` [Example 251, {2-Methoxy-4-[4-(4-methyl-piperazin-1-yl)-piperidin-1-yl]-phenyl}-[7-(2-methoxy-phenyl)-pyrrolo[2,1-f][1,2,4]triazin-2-yl]-amine], for which the IC50 at JAK2 (JAK2 Kinase Inhibition) and on ALK (ALK Kinase Inhibition) was under 100 nM each time.
On to `COc1ccccc1-c1ccc2cnc(Nc3cccc(C(=O)N4CCN(C)CC4)c3OC)nn12` [Example 1231, {2-Methoxy-3-[7-(2-methoxy-phenyl)-pyrrolo[2,1-f][1,2,4]triazin-2-ylamino]-phenyl}-(4-methyl-piperazin-1-yl)-methanone], for which the IC50 at JAK2 (setting [1]) fell in the range of 1000 to 10000 nM; at ALK (setting [2]) it was 100 to 1000 nM.
As for `CN(c1cccc(-c2ccc3cnc(Nc4ccc(C5CCN(CCO)CC5)cc4)nn23)c1)S(C)(=O)=O` [Example 961, N-[3-(2-{4-[1-(2-Hydroxy-ethyl)-piperidin-4-yl]-phenylamino}-pyrrolo[2,1-f][1,2,4]triazin-7-yl)-phenyl]-N-methyl-methanesulfonamide], the values for the IC50 at JAK2 (setting [1]) and at ALK (setting [2]) were under 100 nM and 100 to 1000 nM, respectively.
`COc1cc([C@@H]2CCN(CCO)C[C@@H]2O)ccc1Nc1ncc2ccc(-c3ccccc3N(C)S(C)(=O)=O)n2n1` (racemic) [Example 847, (±)-N-[2-(2-{4-[(3R,4S)-3-Hydroxy-1-(2-hydroxy-ethyl)-piperidin-4-yl]-2-methoxy-phenylamino}-pyrrolo[2,1-f][1,2,4]triazin-7-yl)-phenyl]-N-methyl-methanesulfonamide]: the IC50 on JAK2 (setting [1]) was 100 to 1000 nM; on ALK (setting [2]), under 100 nM.
Turning to `CCNS(=O)(=O)c1cccc(-c2ccc3cnc(Nc4ccc(C5CCN(CC(N)=O)CC5)cc4)nn23)c1` [Example 929, 2-(4-{4-[7-(3-Ethylsulfamoyl-phenyl)-pyrrolo[2,1f][1,2,4]triazin-2-ylamino]-phenyl}-piperidin-1-yl)-acetamide], the IC50 at JAK2 (setting [1]) and at ALK (setting [2]) was under 100 nM each time.
With `CN1CCC(c2ccc(Nc3ncc4ccc(-c5cccc(CCC#N)c5)n4n3)cc2)CC1` [Example 1149, 3-(3-{2-[4-(1-Methyl-piperidin-4-yl)-phenylamino]-pyrrolo[2,1-f][1,2,4]triazin-7-yl}-phenyl)-propionitrile], the IC50 on JAK2 (setting [1]) and at ALK (setting [2]) was under 100 nM throughout.
As to `COc1ccccc1-c1ccc2cnc(Nc3ccc4c(c3)CCN(CC(N)=O)C4)nn12` [Example 917, 2-{6-[7-(2-Methoxy-phenyl)-pyrrolo[2,1-f][1,2,4]triazin-2-ylamino]-3,4-dihydro-1H-isoquinolin-2-yl}-acetamide], the results for the IC50 at JAK2 (setting [1]) and on ALK (setting [2]) were under 100 nM and 100 to 1000 nM, respectively.
On the same counts, the results for `COc1ccccc1-c1ccc2cnc(Nc3ccc(C4CCNCC4)nc3)nn12` [Example 1026, (1′,2′,3′,4′,5′,6′-Hexahydro-[2,4]bipyridinyl-5-yl)-[7-(2-methoxy-phenyl)-pyrrolo[2,1-f][1,2,4]triazin-2-yl]-amine] are under 100 nM and under 100 nM.
The like results for `COc1cc(C2CCNCC2)ccc1Nc1ncc2c(C)cc(-c3ccccc3N(C)S(C)(=O)=O)n2n1` [Example 1263, N-{2-[2-(2-Methoxy-4-piperidin-4-yl-phenylamino)-5-methyl-pyrrolo[2,1-f][1,2,4]triazin-7-yl]-phenyl}-N-methyl-methanesulfonamide] were, in that order, 100 to 1000 nM and under 100 nM.
In the case of `CS(=O)(=O)c1cccc(-c2ccc3cnc(Nc4cccc(C5(O)CCNCC5)c4)nn23)c1` [Example 1552, 4-{3-[7-(3-Methanesulfonyl-phenyl)-pyrrolo[2,1-f][1,2,4]triazin-2-ylamino]-phenyl}-piperidin-4-ol], the IC50 is under 100 nM on JAK2 (JAK2 Kinase Inhibition) and 100 to 1000 nM at ALK (ALK Kinase Inhibition).
The like results for `COc1ccc(-c2cc(Cl)c3cnc(Nc4ccc(C5CCN(CC(N)=O)CC5)cc4)nn23)cn1` [Example 1555, 2-(4-{4-[5-Chloro-7-(6-methoxy-pyridin-3-yl)-pyrrolo[2,1-f][1,2,4]triazin-2-ylamino]-phenyl}-piperidin-1-yl)-acetamide] were, in that order, under 100 nM and 100 to 1000 nM.
With `CNC(=O)c1cccc(Nc2ncc3ccc(-c4cnn(C)c4)n3n2)c1` [Example 965, N-Methyl-3-[7-(1-methyl-1H-pyrazol-4-yl)-pyrrolo[2,1-f][1,2,4]triazin-2-ylamino]-benzamide], the IC50 at JAK2 (setting [1]) is under 100 nM; at ALK (setting [2]), 1000 to 10000 nM.
Regarding `c1ccc(-c2ccc3cnc(NCCN4CCOCC4)nn23)cc1` [Example 28, (2-Morpholin-4-yl-ethyl)-(7-phenyl-pyrrolo[2,1-f][1,2,4]triazin-2-yl)-amine], the IC50 at JAK2 (JAK2 Kinase Inhibition) was 1000 to 10000 nM; on ALK (ALK Kinase Inhibition), over 10000 nM.
